Assay results taken from PubChem BioAssay AID1963845 (Molecular Pharmacology Branch, DTP, NCI, 2024).

Tested on: 429239-143-T-J1-PDC complex spheroid viability
Assay: Anticancer human tumor 429239-143-T-J1-PDC patient-derived small cell lung carcinoma cell line growth inhibition [POLQ]
Settings: for IC50: curve of first compound; for viability, T/C: stronger effect = lower value; active means viability on the fitted dose curve at most 10% of control; inactive means the rest
Summary of the method: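 Growth inhibition in 3D: complex spheroids (tumor PDC, HUVEC, MSC) treated with POLQ inhibitor combinations; where Cmax unknown, highest tested concentration 10 microM, except SN-38 at 1 microM.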
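Further: luminescence signal used as surrogate measure of viable cells; spheroids exposed to compounds for seven days before readout.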
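Wherever viability, T/C is given: 100% = DMSO vehicle control viability as luminescence relative to vehicle.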

CC(=O)O[C@H]1C(=O)[C@@]2(C)[C@H]([C@H](OC(=O)c3ccccc3)[C@]3(O)C[C@H](OC(=O)[C@H](O)[C@@H](NC(=O)c4ccccc4)c4ccccc4)C(C)=C1C3(C)C)[C@]1(OC(C)=O)CO[C@@H]1C[C@@H]2O + Nc1ccc(C#CCN(C(=O)Cc2ncc(C(F)(F)F)cc2C(F)(F)F)c2ccc(F)cc2)nn1
14.4 nM: IC50 (second compound 0.0316 µM) | IC50 (second compound 0.1 µM)
inactive: viability, T/C (second compound 0.0316 µM, first compound 0.00949 µM) 65.6% | viability, T/C (second compound 0.0316 µM, first compound 0.03 µM) 20.2% | viability, T/C (second compound 0.0316 µM, first compound 0.0949 µM) 16% | viability, T/C (second compound 0.0316 µM, first compound 0.3 µM) 16.2% | viability, T/C (second compound 0.0316 µM, first compound 0.949 µM) 26.6% | viability, T/C (second compound 0.0316 µM, first compound 3 µM) 32.6% | viability, T/C (second compound 0.1 µM, first compound 0.00949 µM) 67% | viability, T/C (second compound 0.1 µM, first compound 0.03 µM) 18.6% | viability, T/C (second compound 0.1 µM, first compound 0.0949 µM) 15.9% | viability, T/C (second compound 0.1 µM, first compound 0.3 µM) 17.1% | viability, T/C (second compound 0.1 µM, first compound 0.949 µM) 22.2% | viability, T/C (second compound 0.1 µM, first compound 3 µM) 24.6% | viability, T/C (second compound 0.316 µM, first compound 0.00949 µM) 64.2% | viability, T/C (second compound 0.316 µM, first compound 0.03 µM) 22.6% | viability, T/C (second compound 0.316 µM, first compound 0.0949 µM) 16% | viability, T/C (second compound 0.316 µM, first compound 0.3 µM) 17.1% | viability, T/C (second compound 0.316 µM, first compound 0.949 µM) 19.8% | viability, T/C (second compound 0.316 µM, first compound 3 µM) 26.2% | viability, T/C (second compound 1 µM, first compound 0.00949 µM) 71% | viability, T/C (second compound 1 µM, first compound 0.03 µM) 18.2% | viability, T/C (second compound 1 µM, first compound 0.0949 µM) 14.8% | viability, T/C (second compound 1 µM, first compound 0.3 µM) 17.5% | viability, T/C (second compound 1 µM, first compound 0.949 µM) 25.2% | viability, T/C (second compound 1 µM, first compound 3 µM) 24% | viability, T/C (second compound 3.16 µM, first compound 0.00949 µM) 67% | viability, T/C (second compound 3.16 µM, first compound 0.03 µM) 16.2% | viability, T/C (second compound 3.16 µM, first compound 0.0949 µM) 15.4% | viability, T/C (second compound 3.16 µM, first compound 0.3 µM) 15.9% | viability, T/C (second compound 3.16 µM, first compound 0.949 µM) 18.5% | viability, T/C (second compound 3.16 µM, first compound 3 µM) 26.7% | viability, T/C (second compound 10 µM, first compound 0.00949 µM) 64.3% | viability, T/C (second compound 10 µM, first compound 0.03 µM) 14.5% | viability, T/C (second compound 10 µM, first compound 0.0949 µM) 13.4% | viability, T/C (second compound 10 µM, first compound 0.3 µM) 14.3% | viability, T/C (second compound 10 µM, first compound 0.949 µM) 15.9% | viability, T/C (second compound 10 µM, first compound 3 µM) 18.5%
14.2 nM: IC50 (second compound 3.16 µM)
13.2 nM: IC50 (second compound 10 µM)
15.3 nM: IC50 (second compound 1 µM)
14 nM: IC50 (second compound 0.316 µM)

Cn1ncnc1[C@H]1c2n[nH]c(=O)c3cc(F)cc(c23)N[C@@H]1c1ccc(F)cc1 + COC1C(OC(N)=O)C(O)C(Oc2ccc3c(O)c(NC(=O)c4ccc(O)c(CC=C(C)C)c4)c(=O)oc3c2C)OC1(C)C
13.7 nM: IC50 (second compound 3.16 µM)
13.9 nM: IC50 (second compound 0.1 µM)
23.4 nM: IC50 (second compound 0.316 µM)
inactive: viability, T/C (second compound 0.0316 µM, first compound 0.000316 µM) 97.7% | viability, T/C (second compound 0.0316 µM, first compound 0.001 µM) 89.6% | viability, T/C (second compound 0.0316 µM, first compound 0.00316 µM) 83.6% | viability, T/C (second compound 0.0316 µM, first compound 0.01 µM) 62.6% | viability, T/C (second compound 0.0316 µM, first compound 0.0316 µM) 47% | viability, T/C (second compound 0.0316 µM, first compound 0.1 µM) 27.8% | viability, T/C (second compound 0.1 µM, first compound 0.000316 µM) 104% | viability, T/C (second compound 0.1 µM, first compound 0.001 µM) 105% | viability, T/C (second compound 0.1 µM, first compound 0.00316 µM) 84.6% | viability, T/C (second compound 0.1 µM, first compound 0.01 µM) 51.5% | viability, T/C (second compound 0.1 µM, first compound 0.0316 µM) 45.5% | viability, T/C (second compound 0.1 µM, first compound 0.1 µM) 27.8% | viability, T/C (second compound 0.316 µM, first compound 0.000316 µM) 94.2% | viability, T/C (second compound 0.316 µM, first compound 0.001 µM) 92.4% | viability, T/C (second compound 0.316 µM, first compound 0.00316 µM) 88.7% | viability, T/C (second compound 0.316 µM, first compound 0.01 µM) 64.5% | viability, T/C (second compound 0.316 µM, first compound 0.0316 µM) 45.7% | viability, T/C (second compound 0.316 µM, first compound 0.1 µM) 22.8% | viability, T/C (second compound 1 µM, first compound 0.000316 µM) 98.4% | viability, T/C (second compound 1 µM, first compound 0.001 µM) 93.5% | viability, T/C (second compound 1 µM, first compound 0.00316 µM) 82.9% | viability, T/C (second compound 1 µM, first compound 0.01 µM) 57.6% | viability, T/C (second compound 1 µM, first compound 0.0316 µM) 36.8% | viability, T/C (second compound 1 µM, first compound 0.1 µM) 25.4% | viability, T/C (second compound 3.16 µM, first compound 0.000316 µM) 92.1% | viability, T/C (second compound 3.16 µM, first compound 0.001 µM) 90% | viability, T/C (second compound 3.16 µM, first compound 0.00316 µM) 77.7% | viability, T/C (second compound 3.16 µM, first compound 0.01 µM) 58.1% | viability, T/C (second compound 3.16 µM, first compound 0.0316 µM) 31.5% | viability, T/C (second compound 3.16 µM, first compound 0.1 µM) 27.8% | viability, T/C (second compound 10 µM, first compound 0.000316 µM) 89.5% | viability, T/C (second compound 10 µM, first compound 0.001 µM) 90.9% | viability, T/C (second compound 10 µM, first compound 0.00316 µM) 78.9% | viability, T/C (second compound 10 µM, first compound 0.01 µM) 53.4% | viability, T/C (second compound 10 µM, first compound 0.0316 µM) 39.6% | viability, T/C (second compound 10 µM, first compound 0.1 µM) 25.1%
24.5 nM: IC50 (second compound 0.0316 µM)
14.3 nM: IC50 (second compound 10 µM)
15.4 nM: IC50 (second compound 1 µM)
